What was measured:
[1] = biological target: PIK3CA (human) (UniProt P42336); test: Inhibition of PIK3CA Kinase Activity
[2] = biological target: PIK3CA (human), P42336 [Antiproliferation of PI3K Mutated BT20 Cells]; test: Cell-Based Assay
Chain of PIK3CA (human), P42336 [Antiproliferation of PI3K Mutated BT20 Cells] (P42336 whole entry, looked up, change not shown): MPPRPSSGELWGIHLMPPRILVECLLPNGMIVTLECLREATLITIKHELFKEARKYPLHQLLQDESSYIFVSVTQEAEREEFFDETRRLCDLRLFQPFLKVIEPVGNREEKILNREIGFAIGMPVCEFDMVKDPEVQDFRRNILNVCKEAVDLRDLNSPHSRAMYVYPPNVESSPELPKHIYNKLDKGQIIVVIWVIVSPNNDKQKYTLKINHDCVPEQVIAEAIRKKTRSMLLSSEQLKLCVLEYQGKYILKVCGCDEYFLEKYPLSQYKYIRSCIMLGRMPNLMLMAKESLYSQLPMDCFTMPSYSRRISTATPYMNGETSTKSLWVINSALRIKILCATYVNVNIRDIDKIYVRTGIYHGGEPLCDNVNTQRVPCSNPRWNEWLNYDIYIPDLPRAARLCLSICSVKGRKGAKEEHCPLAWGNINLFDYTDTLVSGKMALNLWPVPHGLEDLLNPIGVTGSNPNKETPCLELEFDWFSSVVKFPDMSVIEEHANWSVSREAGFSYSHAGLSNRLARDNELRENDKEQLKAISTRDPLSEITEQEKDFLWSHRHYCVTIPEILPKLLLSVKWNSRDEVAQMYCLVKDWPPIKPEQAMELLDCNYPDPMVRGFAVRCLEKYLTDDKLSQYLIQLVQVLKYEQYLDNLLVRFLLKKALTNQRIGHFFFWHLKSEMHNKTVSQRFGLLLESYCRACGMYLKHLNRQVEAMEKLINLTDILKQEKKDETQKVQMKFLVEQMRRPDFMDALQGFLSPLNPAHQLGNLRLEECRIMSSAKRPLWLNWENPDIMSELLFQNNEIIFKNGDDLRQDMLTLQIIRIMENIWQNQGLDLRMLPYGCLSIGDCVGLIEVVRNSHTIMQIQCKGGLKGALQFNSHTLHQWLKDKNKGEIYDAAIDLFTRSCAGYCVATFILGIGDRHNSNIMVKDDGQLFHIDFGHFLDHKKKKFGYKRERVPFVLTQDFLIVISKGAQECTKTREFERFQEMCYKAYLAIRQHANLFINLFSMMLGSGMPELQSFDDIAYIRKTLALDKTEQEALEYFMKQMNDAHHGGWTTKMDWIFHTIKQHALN

Chain of PIK3CA (human) (P42336 whole entry, looked up): as the sequence (P42336 whole entry, looked up, change not shown) above

Row | SMILES | IC50 [1] [µM] | IC50 [2] [µM]
1 | CNc1nc(C)c2cc(-c3cnc(N)c(OC[C@H](C)N)n3)c(=O)n(C3CCCC3)c2n1 | 0.4 | 2.33
2 | Cc1nc(N)nc2c1cc(-c1cn[nH]c1)c(=O)n2CC(F)(F)F | 0.188 | 0.236
3 | Cc1nc(N)nc2c1cc(-c1cnn(C(=O)OC(C)(C)C)c1)c(=O)n2N1CCCC1 | 0.093 | 0.00508
4 | COc1ccc(-c2cc3c(C)nc(N)nc3n(CCC3CC3)c2=O)cn1 | 0.011 | 0.0942
5 | Cc1nc(N)nc2c1cc(-c1cnn(C)c1)c(=O)n2[C@H]1CC[C@H](OCCO)CC1 | 0.0223 | 0.226
6 | Cc1nc(N)nc2c1cc(-c1cn[nH]c1)c(=O)n2C1CCC(=O)CC1 | 0.012 | 0.00466
7 | Cc1nc(N)nc2c1cc(-c1cnn(CC(F)F)c1)c(=O)n2C1CCCC1 | 0.012 | 0.397
8 | Cc1cc(-c2cc3c(C)nc(N)nc3n(C3CCCC3)c2=O)cnc1N(C)C | 0.011 | 0.0231
9 | Cc1nc(N)nc2c1cc(-c1cn[nH]c1)c(=O)n2[C@H]1CC[C@@H](OCCO)CC1 | 0.0297 | 0.0091
10 | Cc1nc(N)nc2c1cc(Br)c(=O)n2[C@H]1CC[C@H](O)CC1 | 0.044 | 0.305
11 | CNc1nc(C)c2cc(-c3cncnc3)c(=O)n(C3CCCC3)c2n1 | 0.023 | 0.305
12 | CCN(CC)C(=O)OCn1cc(-c2cc3c(C)nc(N)nc3n(C(C)C)c2=O)nn1 | 3.3 | 10
13 | CNc1nc(C)c2cc(Br)c(=O)n(CC3CCOC3)c2n1 (configuration not stated) | 0.048 | 0.594
14 | CNc1nc(C)c2cc(-c3cccc(OC)c3)c(=O)n(C3CCCC3)c2n1 | 0.244 | 0.669
15 | Cc1nc(N)nc2c1cc(-c1ccc(F)cc1)c(=O)n2CC(C)(C)O | 3.4 | 10
16 | COc1ccc(-c2cc3c(C)nc(N)nc3n(C3CCN(C(=O)OC(C)(C)C)C3)c2=O)cn1 (configuration not stated) | 0.027 | 0.172
17 | COc1ncccc1-c1cc2c(C)nc(N)nc2n(C2CCCC2)c1=O | 0.856 | 5.48
18 | Cc1nc(N)nc2c1cc(Br)c(=O)n2[C@H]1CC[C@H](OCCO)CC1 | 0.0552 | 0.0965
19 | CCNc1nc(C)c2cc(-c3cccnc3N)c(=O)n(C3CCCC3)c2n1 | 3.4 | 7.98
20 | Cc1nc(N)nc2c1cc(-c1cccc(Cl)n1)c(=O)n2C1CCCC1 | 0.17 | 3.45
21 | CO[C@H]1CC[C@H](n2c(=O)c(-c3cc[nH]n3)cc3c(C)nc(N)nc32)CC1 | 0.0095 | 0.0172
22 | COc1ccc(-c2cc3c(C)nc(N)nc3n(C3CN(C(=O)OC(C)(C)C)C3)c2=O)cn1 | 0.029 | 0.318
23 | Cc1nc(N)nc2c1cc(Br)c(=O)n2[C@H]1CC[C@@H](O)CC1 | 0.13 | 0.228
24 | Cc1nc(N)nc2c1cc(Br)c(=O)n2CC(C)(C)O | 0.68 | 2.36
25 | CNc1nc(C)c2cc(-c3cnn(CC(F)F)c3)c(=O)n(C3CCCC3)c2n1 | 0.046 | 10

Second part, the molecule after the results:

Row | IC50 [1] [µM] | IC50 [2] [µM] | SMILES
26 | 0.00591 | 0.11 | COc1ncc(-c2cc3c(C)nc(N)nc3n([C@H]3C[C@H](OCC(N)=O)C3)c2=O)cn1
27 | 0.00214 | 0.0126 | COc1ncc(-c2cc3c(C)nc(N)nc3n([C@H]3C[C@H](OCC(N)=O)C3)c2=O)cc1F
28 | 0.0016 | 0.0135 | CNc1nc(C)c2cc(-c3cnc4[nH]ccc4c3)c(=O)n(CC3CCOC3)c2n1 (configuration not stated)
29 | 0.0046 | 0.0456 | CNc1nc(C)c2cc(-c3ccc(OC)nc3)c(=O)n(CC3CCOC3)c2n1 (configuration not stated)
30 | 0.00478 | 0.0147 | CNc1nc(C)c2cc(-c3cccc(CO)c3)c(=O)n(C3CCCC3)c2n1
31 | 0.0013 | 0.0319 | Cc1nc(N)nc2c1cc(-c1cnc3[nH]ccc3c1)c(=O)n2[C@H]1CC[C@H](O)CC1
32 | 0.00928 | 0.0121 | Cc1nc(N)nc2c1cc(-c1ccc(N(C)C)nc1)c(=O)n2[C@H]1CC[C@H](OCCO)CC1
33 | 0.0067 | 0.169 | Cc1nc(N)nc2c1cc(-c1cn[nH]c1)c(=O)n2[C@H]1CC[C@H](O)CC1
34 | 0.00665 | 0.0935 | COc1ncc(-c2cc3c(C)nc(N)nc3n([C@H]3C[C@H](OCCO)C3)c2=O)cn1
35 | 0.0028 | 0.0578 | Cc1nc(N)nc2c1cc(-c1cnc3[nH]ccc3c1)c(=O)n2CC1CCOC1 (configuration not stated)
36 | 0.00101 | 0.00305 | CCNc1nc(C)c2cc(-c3cccc(O)c3)c(=O)n(C3CCCC3)c2n1
37 | 0.0063 | 0.0584 | CNc1nc(C)c2cc(-c3ccc(OC)nc3)c(=O)n(C3CCC3)c2n1
38 | 0.00159 | 0.0206 | CCNc1nc(C)c2cc(-c3cnc(OC)nc3)c(=O)n([C@H]3CC[C@H](O)CC3)c2n1
39 | 0.0023 | 0.00677 | Cc1nc(N)nc2c1cc(-c1cnc3[nH]ccc3c1)c(=O)n2C(C)C
40 | 0.00472 | 0.0335 | COc1ccc(-c2cc3c(C)nc(N)nc3n([C@H]3C[C@H](OCC(N)=O)C3)c2=O)cn1
41 | 0.00758 | 0.0335 | Cc1nc(N)nc2c1cc(-c1cn[nH]c1)c(=O)n2[C@H]1CC[C@H](OCCO)CC1

Reference: the Kinase Knowledgebase extract (Sharma et al. 2016)
